What was measured:
[1] = tested on: chimeric human/mouse MHC class II molecules; assay type: binding
[2] = tested on: chimeric MHC class II molecules on splenic B cells; assay type: cell-based, mouse; conditions: overnight incubation of splenic B cells with recombinant IL-4; data not shown

## myelin basic protein (90-102): DR-restricted synthetic peptide (HLIRLFSRDAPGR; UniProt P02686 90-102, looked up, fragment)
[1]
  binding to chimeric MHC class II molecules: Specific binding was also observed

## OVA (323-339): a peptide that does not bind to DR4Dw4 (ISQAVHAAHAEINEAGR; UniProt P01012 324-340, looked up, fragment)
[1]
  binding to chimeric MHC class II molecules: Binding was not observed

B1: recombinant IL-4: recombinant IL-4 (protein, UniProt P07750 21-140, looked up)
Interleukin-4: HIHGCDKNHLREIIGILNEVTGEGTPCTEMDVPNVLTATKNTTESELVCRASKVLRIFYLKHGKTPCLKKNSSVLMELQRLFRAFRCLDSSISCTMNESKSTSLKDFLESLKSIMQMDYS
[2]
  cell surface level of chimeric MHC class II molecules: increased by three- to fourfold

Reference: PMC2191575 (The Journal of Experimental Medicine, 1994)
